Like-named read-outs stand apart in the source and are kept apart here.
Experiments:
glucagon receptor = glucagon receptor (Homo sapiens, UniProt P47871); test: cAMP induction at the glucagon receptor (agonist activity), luciferase reporter assay in HEK293 cells; assay type: cell-based; set-up: expressed in transfected cells; host or cells: HEK293; details: read-out: GR EC50
Description: (§1) HEK293 cells co-transfected with the receptor and luciferase gene linked to a cAMP responsive element were employed for the bioassay.
(§2) All EC50s and IC50s are reported in the following examples in nM, unless indicated otherwise.

GLP-1 receptor = biological target: T1, GLP-1 receptor (Homo sapiens, UniProt P43220); test: cAMP induction at the GLP-1 receptor (agonist activity), firefly luciferase reporter assay in HEK293 cells; assay type: cell-based; details: Table 3; read-out: GLP-1R EC50
T1 construct: expressed in transfected cells; host or cells: HEK293
Description: as §1, §2

GIP receptor = biological target: T2, GIP receptor (Homo sapiens, UniProt P48546); test: cAMP induction at the GIP receptor (agonist activity), luciferase reporter assay in HEK293 cells; assay type: cell-based; details: read-out: GIPR EC50
T2 construct: expressed in transfected cells; host or cells: HEK293
T2 sequence (P48546 22-466): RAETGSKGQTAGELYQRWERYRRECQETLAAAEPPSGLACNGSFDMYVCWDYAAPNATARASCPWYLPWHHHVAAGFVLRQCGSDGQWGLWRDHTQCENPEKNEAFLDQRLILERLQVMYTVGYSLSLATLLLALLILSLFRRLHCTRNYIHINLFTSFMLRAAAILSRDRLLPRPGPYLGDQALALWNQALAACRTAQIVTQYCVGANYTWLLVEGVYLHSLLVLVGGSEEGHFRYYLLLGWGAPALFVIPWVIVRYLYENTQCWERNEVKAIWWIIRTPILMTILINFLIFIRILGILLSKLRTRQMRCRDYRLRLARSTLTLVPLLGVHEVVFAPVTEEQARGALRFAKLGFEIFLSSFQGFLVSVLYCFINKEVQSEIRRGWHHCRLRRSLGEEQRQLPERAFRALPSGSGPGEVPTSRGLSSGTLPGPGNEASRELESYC
Description: as §1, §2

[1] = assay type: in vivo, C57Bl/6 mice; details: 30 nmol/kg subcutaneously daily for one week
[2] = Example 10: MT-263 under varied administration regimen in diet-induced obesity mice, 6 day study; assay type: in vivo, Diet-induced obesity (DIO) mice; details: injected on a daily basis (10 nmol/kg), compared with every 2 or 3 days
Protocol: Diet-induced obesity (DIO) mice (N=8, 10 mice per group) were injected during the course of the 6 day study as follows: […]

Sequence of glucagon receptor (P47871 26-477): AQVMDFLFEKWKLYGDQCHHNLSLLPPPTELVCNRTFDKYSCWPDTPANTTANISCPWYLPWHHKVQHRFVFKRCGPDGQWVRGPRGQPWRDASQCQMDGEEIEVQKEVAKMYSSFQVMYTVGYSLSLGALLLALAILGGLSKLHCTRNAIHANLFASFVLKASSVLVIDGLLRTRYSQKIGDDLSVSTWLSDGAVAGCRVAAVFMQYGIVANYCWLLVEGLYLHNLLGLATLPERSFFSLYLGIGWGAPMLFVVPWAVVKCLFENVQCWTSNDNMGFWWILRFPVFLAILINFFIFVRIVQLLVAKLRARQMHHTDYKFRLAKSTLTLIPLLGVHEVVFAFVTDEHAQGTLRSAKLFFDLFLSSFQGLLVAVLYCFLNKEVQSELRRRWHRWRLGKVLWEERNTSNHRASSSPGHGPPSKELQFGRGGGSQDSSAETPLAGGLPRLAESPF
T1 sequence (P43220 24-463): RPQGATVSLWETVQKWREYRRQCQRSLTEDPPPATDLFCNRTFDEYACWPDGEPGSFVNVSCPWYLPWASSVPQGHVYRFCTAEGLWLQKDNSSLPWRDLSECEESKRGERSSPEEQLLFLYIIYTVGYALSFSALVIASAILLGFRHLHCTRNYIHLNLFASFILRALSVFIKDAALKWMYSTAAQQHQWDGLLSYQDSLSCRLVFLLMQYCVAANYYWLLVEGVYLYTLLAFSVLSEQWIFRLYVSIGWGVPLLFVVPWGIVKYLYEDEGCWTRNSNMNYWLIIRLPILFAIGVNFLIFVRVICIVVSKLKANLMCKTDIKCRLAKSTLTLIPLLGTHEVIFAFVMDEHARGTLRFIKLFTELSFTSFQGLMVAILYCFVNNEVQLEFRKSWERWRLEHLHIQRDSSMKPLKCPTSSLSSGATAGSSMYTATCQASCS

CC[C@H](C)[C@H](NC(=O)[C@H](CO)NC(=O)[C@H](Cc1ccc(O)cc1)NC(=O)[C@H](CC(=O)O)NC(=O)[C@H](CO)NC(=O)[C@@H](NC(=O)[C@H](Cc1ccccc1)NC(=O)[C@@H](NC(=O)CNC(=O)[C@H](CCC(=O)O)NC(=O)C(C)(C)NC(=O)[C@@H](N)Cc1ccc(O)cc1)[C@@H](C)O)[C@@H](C)O)C(=O)N[C@@H](Cc1ccc(O)cc1)C(=O)N[C@@H](CC(C)C)C(=O)N[C@@H](CC(=O)O)C(=O)N[C@@H](CCCCN)C(=O)N[C@@H](CCC(N)=O)C(=O)N[C@@H](C)C(=O)N[C@@H](C)C(=O)NC(C)(C)C(=O)N[C@@H](CCC(=O)O)C(=O)N[C@@H](Cc1ccccc1)C(=O)N[C@H](C(=O)N[C@@H](CC(N)=O)C(=O)N[C@@H](Cc1c[nH]c2ccccc12)C(=O)N[C@@H](CC(C)C)C(=O)N[C@@H](CC(C)C)C(=O)N[C@@H](C)C(=O)NCC(=O)NCC(=O)N1CCC[C@H]1C(=O)N[C@@H](CO)C(=O)N[C@@H](CO)C(=O)NCC(=O)N[C@@H](C)C(=O)N1CCC[C@H]1C(=O)N1CCC[C@H]1C(=O)N1CCC[C@H]1C(=O)N[C@@H](CO)C(=O)N[C@@H](CCCCN)C(N)=O)C(C)C [mt-263, Y1Aib2E3I12K16Q17A18Aib20E21N24-LAG27-29-CEX-K]
EC50 (glucagon receptor; Table 3): 4040 pM | EC50 (glucagon receptor; Table 4): 3140 pM | EC50 (GLP-1 receptor): 10 pM | EC50 (GIP receptor; Table 3): 5.4 pM | EC50 (GIP receptor; Table 4): 3.3 pM | change in blood glucose levels over the course of the 7-day study [1]: greatest change in blood glucose levels | weight loss compared with the Exendin-4-like positive control peptide [1]: substantially greater than the Exendin-4-like positive control peptide | weight loss over the course of the 7-day study [1]: significant weight loss | decrease in blood glucose levels [2]: biggest decrease in blood glucose levels
